Like-named read-outs stand apart in the source and are kept apart here.
Assays:
[1] = tested on: OCI-AML5 cells expressing shRNA targeting CUL4A or CUL4B; experiment: Dose response in OCI-AML5 expressing shRNAs targeting CUL4A, CUL4B or control; assay type: cell-based, H. sapiens; conditions: ratio of IC50 in shCUL4A vs shCTRL OCI-AML5 cells
[2] = molecular target: T1, CDK1 (Homo sapiens, UniProt P06493); experiment: CDK1 in vitro kinase activity, single concentration 1 μM; assay type: biochemical; conditions: single concentration 1 μM
T1 construct: purchased BPS Bioscience 79597
Experimental: (§1) Kinase activity was assessed using the kinase assay kits from BPS Bioscience for CDK1, CDK9 and CDK12 with Kinase Glo MAX in duplicates. Compounds were tested at a single concentration of 1 μM for CDK1 and CDK9 activity, and in a dilution ranging from 0.64 nM to 50 μM for CDK12 activity. Chemiluminescence was read using the Neo Synergy BioTek plate reader.

[3] = molecular target: T2, CDK9/CyclinT (Homo sapiens, UniProt P50750); experiment: CDK9/CyclinT in vitro kinase activity, single concentration 1 μM; assay type: biochemical; conditions: single concentration 1 μM
T2 construct: purchased BPS Bioscience 79628
Experimental: as §1

[4] = tested on: OCI-AML5 cells; experiment: Dose-response proliferative assay in OCI-AML5 (4 days, CellTiterGlo); assay type: cell-based, H. sapiens; conditions: read-out: IC50 in AML5
How it was run: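 OCI-AML5 cells in αMEM, 10% heat-inactivated FBS plus 10 ng/mL GM-CSF, 300 cells/well, exposed to 8-point 1:4 serial dilutions (10 μM down to 0.5 nM). Viability read after 4 days in culture at 37 °C, 5% CO2.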

[5] = tested on: OCI-AML5 cells expressing shRNAs targeting CDK1, 2, 4, 7, 9, cyclin K; experiment: Dose response in OCI-AML5 expressing shRNAs targeting CDK1, 2, 4, 7, 9, cyclin K or control; assay type: cell-based, H. sapiens; conditions: for class based on cellular selectivity: IC50 in shRNA OCI-AML5 cells and cyclin KeGFP degradation; for Class: class from shRNA IC50 profile and cyclin K-eGFP degradation
[6] = tested on: cyclin KeGFP; experiment: Cyclin KeGFP reporter system (eGFP/mCherry MFI by flow cytometry);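 further: 10 μM compound for 3 h relative to DMSO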; assay type: cell-based, H. sapiens; conditions: cyclin K-eGFP reporter
How it was run: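 OCI-AML5 clone G7 carrying lentiviral cyclin KeGFP/mCherry reporter. eGFP and mCherry geometric MFI measured by flow cytometry; eGFP/mCherry ratio normalized to DMSO-treated cells.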

[7] = OCI-AML5 expressing shRNA CCNK (cyclin K), read-out: IC50 shRNA CCNK
[8] = OCI-AML5 expressing shRNA CDK1, read-out: IC50 shRNA CDK1
[9] = OCI-AML5 expressing shRNA CDK2, read-out: IC50 shRNA CDK2
[10] = OCI-AML5 expressing shRNA CDK4, read-out: IC50 shRNA CDK4
[11] = OCI-AML5 expressing shRNA CDK7, read-out: IC50 shRNA CDK7
[12] = OCI-AML5 expressing shRNA CDK9, read-out: IC50 shRNA CDK9
[13] = Homo sapiens, OCI-AML-5, OCI-AML5 cells
[14] = Homo sapiens, OCI-AML-5, OCI-AML5 expressing shRNA CCNK (cyclin K), read-out: IC50 shRNA CCNK
[15] = Homo sapiens, OCI-AML-5, OCI-AML5 expressing shRNA CDK1, read-out: IC50 shRNA CDK1
[16] = Homo sapiens, OCI-AML-5, OCI-AML5 expressing shRNA CDK2, read-out: IC50 shRNA CDK2
[17] = Homo sapiens, OCI-AML-5, OCI-AML5 expressing shRNA CDK4, read-out: IC50 shRNA CDK4
[18] = Homo sapiens, OCI-AML-5, OCI-AML5 expressing shRNA CDK7, read-out: IC50 shRNA CDK7
[19] = Homo sapiens, OCI-AML-5, OCI-AML5 expressing shRNA CDK9, read-out: IC50 shRNA CDK9

T1 sequence (P06493 whole entry): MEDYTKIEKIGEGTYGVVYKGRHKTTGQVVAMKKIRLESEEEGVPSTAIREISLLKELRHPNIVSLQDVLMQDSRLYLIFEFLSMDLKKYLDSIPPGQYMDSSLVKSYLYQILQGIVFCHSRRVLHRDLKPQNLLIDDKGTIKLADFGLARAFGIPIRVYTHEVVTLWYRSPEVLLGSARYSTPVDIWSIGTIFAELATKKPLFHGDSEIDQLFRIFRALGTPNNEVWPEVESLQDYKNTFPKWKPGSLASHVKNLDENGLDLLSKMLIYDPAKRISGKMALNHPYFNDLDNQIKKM
T1 sequence (P14635 whole entry partner): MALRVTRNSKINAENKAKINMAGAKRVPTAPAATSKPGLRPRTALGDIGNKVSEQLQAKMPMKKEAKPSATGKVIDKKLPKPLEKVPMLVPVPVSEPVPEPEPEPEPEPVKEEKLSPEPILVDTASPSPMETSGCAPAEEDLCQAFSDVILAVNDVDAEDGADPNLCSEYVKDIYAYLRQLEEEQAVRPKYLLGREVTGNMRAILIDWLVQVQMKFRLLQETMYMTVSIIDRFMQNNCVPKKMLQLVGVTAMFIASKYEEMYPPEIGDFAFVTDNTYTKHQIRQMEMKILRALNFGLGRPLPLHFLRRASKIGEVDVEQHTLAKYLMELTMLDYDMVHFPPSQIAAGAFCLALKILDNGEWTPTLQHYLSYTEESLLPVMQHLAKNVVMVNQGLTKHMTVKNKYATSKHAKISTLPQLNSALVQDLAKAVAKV
T2 sequence (P50750 whole entry): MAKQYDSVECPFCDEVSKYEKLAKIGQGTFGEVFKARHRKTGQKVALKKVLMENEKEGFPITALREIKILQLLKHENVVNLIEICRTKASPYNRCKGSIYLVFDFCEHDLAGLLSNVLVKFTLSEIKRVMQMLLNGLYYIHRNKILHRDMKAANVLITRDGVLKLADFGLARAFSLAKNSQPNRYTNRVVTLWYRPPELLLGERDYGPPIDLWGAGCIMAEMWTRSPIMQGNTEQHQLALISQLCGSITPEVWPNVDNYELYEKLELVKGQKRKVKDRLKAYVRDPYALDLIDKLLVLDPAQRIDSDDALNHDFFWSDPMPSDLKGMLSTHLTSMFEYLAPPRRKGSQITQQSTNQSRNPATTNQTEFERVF
T2 sequence (O60563 whole entry partner): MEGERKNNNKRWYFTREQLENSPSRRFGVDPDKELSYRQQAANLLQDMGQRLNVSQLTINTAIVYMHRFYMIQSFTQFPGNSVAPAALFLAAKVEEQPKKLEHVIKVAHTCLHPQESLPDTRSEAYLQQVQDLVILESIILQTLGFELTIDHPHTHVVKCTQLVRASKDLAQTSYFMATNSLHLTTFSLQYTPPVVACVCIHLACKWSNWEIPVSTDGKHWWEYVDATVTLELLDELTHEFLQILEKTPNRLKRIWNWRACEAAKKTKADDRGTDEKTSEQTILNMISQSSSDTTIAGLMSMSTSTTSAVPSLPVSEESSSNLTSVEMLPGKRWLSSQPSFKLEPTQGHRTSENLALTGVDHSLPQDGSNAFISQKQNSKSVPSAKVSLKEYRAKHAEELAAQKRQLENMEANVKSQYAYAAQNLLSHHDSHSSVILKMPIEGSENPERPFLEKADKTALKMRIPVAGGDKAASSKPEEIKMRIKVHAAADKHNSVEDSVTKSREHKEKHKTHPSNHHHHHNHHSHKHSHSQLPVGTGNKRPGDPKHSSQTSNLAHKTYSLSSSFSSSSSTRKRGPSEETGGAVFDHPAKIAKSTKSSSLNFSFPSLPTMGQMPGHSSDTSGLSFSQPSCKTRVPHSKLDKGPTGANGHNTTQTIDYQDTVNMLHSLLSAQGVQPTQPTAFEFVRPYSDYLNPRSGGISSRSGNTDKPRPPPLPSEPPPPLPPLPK

Row | SMILES | Ratio shCUL4A/shCTRL [1] | class based on cellular selectivity [5] | Class [5] | % degradation cyclin K-eGFP [6] | inhibition at 1 µM [2] | inhibition at 1 µM [3] | IC50 [4, 13] | IC50 [5, 14] | IC50 [5, 15] | IC50 [5, 16] | IC50 [5, 17] | IC50 [5, 18] | IC50 [5, 19] | further results
1 | CN(C)c1ccc(CC(=O)Nc2ncc(C(C)(C)C)s2)cc1 [UOM-005605] | 4.63 | Class I (effective cyclin K MGDs (decreased IC50 in cyclin K depleted cells only, and >65% degradation of cyclin KeGFP)) | 1 | 76% | – | – | – | – | – | – | – | – | – | % CDK1 inhibition [2]: 1%; % CDK9 inhibition [3]: 5%; IC50 ([4]; OCI-AML5 cells): 1040 nM; IC50 [5, 7]: 341 nM; IC50 [5, 8]: 1140 nM; IC50 [5, 9]: 1140 nM; IC50 [5, 10]: 996 nM; IC50 [5, 11]: 1080 nM; IC50 [5, 12]: 968 nM
2 | O=C(Cc1ccc(-c2ccccc2)cc1)Nc1ncc(SCc2cccnc2)s1 [UOM-005429] | 2.25 | – | 1 | 80% | 25% | 67% | 422 nM | 148 nM | 493 nM | 457 nM | 408 nM | 525 nM | 367 nM | –
3 | O=C(Cc1ccc2ccccc2c1)Nc1ncc(SCc2cccnc2)s1 [UOM-005428] | 2.81 | Class I (effective cyclin K MGDs (decreased IC50 in cyclin K depleted cells only, and >65% degradation of cyclin KeGFP)) | 1 | 80% | 70% | 67% | 361 nM | 135 nM | 502 nM | 544 nM | 509 nM | 578 nM | 369 nM | –
4 | COc1ccc2cc([C@H](C)C(=O)Nc3ncc(SCc4cccnc4)s3)ccc2c1 [UOM-005431] | 2.43 | – | 1 | 78% | – | – | – | – | – | – | – | – | – | % CDK1 inhibition [2]: 53%; % CDK9 inhibition [3]: 78%; IC50 ([4]; OCI-AML5 cells): 895 nM; IC50 [5, 7]: 396 nM; IC50 [5, 8]: 1080 nM; IC50 [5, 9]: 1160 nM; IC50 [5, 10]: 979 nM; IC50 [5, 11]: 1080 nM; IC50 [5, 12]: 876 nM
5 | O=C(Cc1ccc(Br)cc1)Nc1ncc(SCc2cccnc2)s1 [UOM-005199] | 0.67 | – | mixed 1-2 | 64% | 60% | 100% | 2560 nM | 1500 nM | 1180 nM | 2940 nM | 2830 nM | 2800 nM | 1780 nM | –
6 | CC(=O)Nc1ccc(CC(=O)Nc2ncc(SCc3cccnc3)s2)cc1 [UOM-005473] | 2.59 | – | mixed 1-2 | 67% | 70% | 90% | 210 nM | 78.6 nM | 154 nM | 197 nM | 227 nM | 221 nM | 152 nM | –
7 | O=C(Cc1ccc(N2CCOCC2)cc1)Nc1ncc(SCc2cccnc2)s1 [UOM-005606] | 1.07 | – | mixed 1-2 | 45% | 81% | 65% | 1330 nM | 785 nM | 700 nM | 1440 nM | 1840 nM | 1470 nM | 794 nM | –
8 | O=C(Cc1cccnc1)Nc1ncc(SCc2cccnc2)s1 [UOM-005249] | 0.98 | Class II | 2 | 10% | 100% | 100% | 2450 nM | 1850 nM | 908 nM | 2320 nM | 2280 nM | 2240 nM | 1180 nM | –
9 | O=C(Cc1ccc(N2CCCC2)cc1)Nc1ncc(SCc2cccnc2)s1 [UOM-005608] | 2.84 | Class I (effective cyclin K MGDs (decreased IC50 in cyclin K depleted cells only, and >65% degradation of cyclin KeGFP)) | 1 | 77% | 63% | 54% | 152 nM | 45.2 nM | 160 nM | 180 nM | 160 nM | 170 nM | 125 nM | –
10 | O=C(Cc1ccc(-c2ccncc2)cc1)Nc1ncc(SCc2cccnc2)s1 [UOM-005550] | 0.87 | – | mixed 1-2 | 35% | 35% | 64% | 1070 nM | 481 nM | 566 nM | 912 nM | 897 nM | 916 nM | 554 nM | –
11 | O=C(Cc1ccc(NC(=O)c2cccnc2)cc1)Nc1ncc(SCc2cccnc2)s1 [UOM-005475] | 1.05 | – | 2 | 0% | 100% | 63% | 750 nM | 574 nM | 314 nM | 730 nM | 709 nM | 658 nM | 299 nM | –
12 | COc1ccc(CC(=O)Nc2ncc(SCc3cccnc3)s2)cc1 [UOM-005201] | 0.99 | Class II | 2 | 55% | 69% | 54% | 3000 nM | 2010 nM | 1030 nM | 2880 nM | 3380 nM | 3110 nM | 1390 nM | –

Reference: publication PMC12152147, “DDB1 engagement defines the selectivity of S656 analogs for cyclin K degradation over CDK inhibition” (EMBO Reports, 2025)
